Test results as given in patent US9029391B2 (priority 2011, dated 2015).
pIC50: −log10 of the molar value.

System: HIV
Experiment: MT4 Assay (anti-HIV activity)
Format: cell-based
Details: Human immunodeficiency virus 1, 96 h, read-out: HIV MT4 Assay IC50, HTLV-1 transformed cell line MT-4, cell titer glo, 10 point dose response curve
Procedure: Antiviral HIV activity and cytotoxicity values for compounds of the invention from Table 1 were measured in parallel in the HTLV-1 transformed cell line MT-4 based on the method previously described (Hazen et al., 2007, In vitro antiviral activity of the novel, tyrosyl-based human immunodeficiency virus (HIV) type 1 protease inhibitor brecanavir (GW640385) in combination with other antiretrovirals and against a panel of protease inhibitor-resistant HIV (Hazen et al., “In vitro antiviral activity of the novel, tyrosyl-based human immunodeficiency virus (HIV) type 1 protease inhibitor brecanavir (GW640385) in combination with other antiretrovirals and against a panel of protease inhibitor-resistant HIV”, Antimicrob. Agents Chemother. 2007, 51: 3147-3154; and Pauwels et al., “Sensitive and rapid assay on MT-4 cells for the detection of antiviral compounds against the AIDS virus”, J. of Virological Methods 1987, 16: 171-185).
Luciferase activity was measured 96 hours later by adding a cell titer glo (Promega, Madison, Wis.). Percent inhibition of cell protection data was plotted relative to no compound control. Under the same condition, cytotoxicity of the compounds was determined using cell titer glo (Promega, Madison, Wis.). IC50s were determined from a 10 point dose response curve using 3-4-fold serial dilution for each compound, which spans a concentration range >1000 fold.

Cn1c(C(OC(C)(C)C)C(=O)O)c(-c2ccc3c(c2)OCCCO3)c2ccccc2c1=O (centres unmarked) [Example 61, 2-(tert-butoxy)-2-[4-(3,4-dihydro-2H-1,5-benzodioxepin-7-yl)-2-methyl-1-oxo-1,2-dihydroisoquinolin-3-yl]acetic acid]
pIC50: 5.06

COc1ccc2c(-c3cc(F)c4c(c3C)CCCO4)c([C@H](OC(C)(C)C)C(=O)O)n(C)c(=O)c2c1 [Example 106, (2S)-2-(tert-butoxy)-2-[4-(8-fluoro-5-methyl-3,4-dihydro-2H-1-benzopyran-6-yl)-7-methoxy-2-methyl-1-oxo-1,2-dihydroisoquinolin-3-yl]acetic acid]
pIC50: 7.40

Cn1c(C(OC(C)(C)C)C(=O)O)c(-c2ccccc2)c2ccccc2c1=O (centres unmarked) [Example 156, [(1,1-dimethylethyl)oxy](2-methyl-1-oxo-4-phenyl-1,2-dihydro-3-isoquinolinyl)acetic acid]
pIC50: 6.10

CCn1c(C(OC(C)(C)C)C(=O)O)c(-c2ccc3c(c2C)CCCO3)c2ccccc2c1=O (centres unmarked) [Example 77, 2-(tert-butoxy)-2-[2-ethyl-4-(5-methyl-3,4-dihydro-2H-1-benzopyran-6-yl)-1-oxo-1,2-dihydroisoquinolin-3-yl]acetic acid]
pIC50: 6.31

Cc1occc1-c1c(C(OC(C)(C)C)C(=O)O)n(C)c(=O)c2ccccc12 (centres unmarked) [Example 155, [(1,1-dimethylethyl)oxy][2-methyl-4-(2-methyl-3-furanyl)-1-oxo-1,2-dihydro-3-isoquinolinyl]acetic]
pIC50: 4.88

Cc1ccc(COc2ccc3c(-c4cc(F)c5c(c4C)CCCO5)c([C@H](OC(C)(C)C)C(=O)O)n(C)c(=O)c3c2)s1 [Example 113, (2S)-2-(tert-butoxy)-2-[4-(8-fluoro-5-methyl-3,4-dihydro-2H-1-benzopyran-6-yl)-2-methyl-7-[(5-methylthiophen-2-yl)methoxy]-1-oxo-1,2-dihydroisoquinolin-3-yl]acetic acid]
pIC50: 7.52

Cc1c(-c2c([C@H](OC(C)(C)C)C(=O)O)n(C)c(=O)c3cc(Br)ccc23)cc(F)c2c1CCCO2 (atropisomer, axis not shown; (M)) [Example 164, (2S)(M)-[7-bromo-4-(8-fluoro-5-methyl-3,4-dihydro-2H-chromen-6-yl)-2-methyl-1-oxo-1,2-dihydro-3-isoquinolinyl][(1,1-dimethylethyl)oxy]ethanoic acid]
pIC50: 6.34

Cc1ccc2c(-c3ccc4c(c3)CCCO4)c(C(OC(C)(C)C)C(=O)O)n(C)c(=O)c2c1 (centres unmarked) [Example 58, 2-(tert-butoxy)-2-[4-(3,4-dihydro-2H-1-benzopyran-6-yl)-2,7-dimethyl-1-oxo-1,2-dihydroisoquinolin-3-yl]acetic acid]
pIC50: 6.43

Cc1c(-c2c([C@H](OC(C)(C)C)C(=O)O)n(C)c(=O)c3cc(-c4ccncc4)ccc23)cc(F)c2c1CCCO2 (atropisomer, axis not shown; (M)) [Example 205, (2S)(M)-[(1,1-dimethylethyl)oxy][4-(8-fluoro-5-methyl-3,4-dihydro-2H-chromen-6-yl)-2-methyl-1-oxo-7-(4-pyridinyl)-1,2-dihydro-3-isoquinolinyl]ethanoic acid]
pIC50: 6.80

Cn1c(C(OC(C)(C)C)C(=O)O)c(-c2cc3c4c(c2)CCCN4CCC3)c2ccccc2c1=O (centres unmarked) [Example 158, [(1,1-dimethylethyl)oxy][2-methyl-1-oxo-4-(2,3,6,7-tetrahydro-1H,5H-pyrido[3,2,1-ij]quinolin-9-yl)-1,2-dihydro-3-isoquinolinyl]acetic acid]
pIC50: 4.30

Cc1c(-c2c(C(OC(C)(C)C)C(=O)O)n(C)c(=O)c3cc(F)ccc23)ccc2c1CCCO2 (centres unmarked) [Example 75, 2-(tert-butoxy)-2-[7-fluoro-2-methyl-4-(5-methyl-3,4-dihydro-2H-1-benzopyran-6-yl)-1-oxo-1,2-dihydroisoquinolin-3-yl]acetic acid]
pIC50: 6.41

Cc1c(-c2c(C(OC(C)(C)C)C(=O)O)n(C)c(=O)c3cc(OC(F)F)ccc23)ccc2c1CCCO2 (centres unmarked) [Example 114, 2-(tert-butoxy)-2-[7-(difluoromethoxy)-2-methyl-4-(5-methyl-3,4-dihydro-2H-1-benzopyran-6-yl)-1-oxo-1,2-dihydroisoquinolin-3-yl]acetic acid]
pIC50: 6.38

Cc1c(-c2c(C(OC(C)(C)C)C(=O)O)n(C)c(=O)c3cc(OS(=O)(=O)N(C)C)ccc23)ccc2c1CCCO2 (centres unmarked) [Example 123, 2-(tert-butoxy)-2-{7-[(dimethylsulfamoyl)oxy]-2-methyl-4-(5-methyl-3,4-dihydro-2H-1-benzopyran-6-yl)-1-oxo-1,2-dihydroisoquinolin-3-yl}acetic acid]
pIC50: 5.91

Cn1c(C(OC(C)(C)C)C(=O)O)c(-c2ccc3c(c2)CCCO3)c2cc(Cl)ccc2c1=O (centres unmarked) [Example 26, 2-(tert-butoxy)-2-[6-chloro-4-(3,4-dihydro-2H-1-benzopyran-6-yl)-2-methyl-1-oxo-1,2-dihydroisoquinolin-3-yl]acetic acid]
pIC50: 5.72

Cc1c(-c2c([C@H](OC(C)(C)C)C(=O)O)n(C)c(=O)c3cc(F)ccc23)cc(F)c2c1CCCO2 [Example 139, (2S)-2-(tert-butoxy)-2-[7-fluoro-4-(8-fluoro-5-methyl-3,4-dihydro-2H-1-benzopyran-6-yl)-2-methyl-1-oxo-1,2-dihydroisoquinolin-3-yl]acetic acid]
pIC50: 7.52

CC(=O)NCc1ccc2c(-c3ccc(C)c(C)c3)c(C(OC(C)(C)C)C(=O)O)n(C)c(=O)c2c1 (centres unmarked) [Example 184, 2-(7-(acetamidomethyl)-4-(3,4-dimethylphenyl)-2-methyl-1-oxo-1,2-dihydroisoquinolin-3-yl)-2-(tert-butoxy)acetic acid]
pIC50: 4.50

Cc1cccnc1COc1ccc2c(-c3ccc4c(c3C)CCCO4)c(C(OC(C)(C)C)C(=O)O)n(C)c(=O)c2c1 (centres unmarked) [Example 102, 2-(tert-butoxy)-2-[2-methyl-4-(5-methyl-3,4-dihydro-2H-1-benzopyran-6-yl)-7-[(3-methylpyridin-2-yl)methoxy]-1-oxo-1,2-dihydroisoquinolin-3-yl]acetic acid]
pIC50: 6.48

Cc1c(-c2c([C@H](OC(C)(C)C)C(=O)O)n(C)c(=O)c3cc(CC(C)C)ccc23)cc(F)c2c1CCCO2 (atropisomer, axis not shown; (M)) [Example 174, (2S)(M)-[(1,1-dimethylethyl)oxy][4-(8-fluoro-5-methyl-3,4-dihydro-2H-chromen-6-yl)-2-methyl-7-(2-methylpropyl)-1-oxo-1,2-dihydro-3-isoquinolinyl]ethanoic acid]
pIC50: 7.30

Cn1c(C(OC(C)(C)C)C(=O)O)c(-c2ccc3c(c2Cl)OCCC3)c2ccccc2c1=O (centres unmarked) [Example 37, 2-(tert-butoxy)-2-[4-(8-chloro-3,4-dihydro-2H-1-benzopyran-7-yl)-2-methyl-1-oxo-1,2-dihydroisoquinolin-3-yl]acetic acid]
pIC50: 4.48

Cc1c(-c2c(C(OC(C)(C)C)C(=O)O)n(C)c(=O)c3cc(OCCN4CCOCC4)ccc23)ccc2c1CCCO2 (centres unmarked) [Example 119, 2-(tert-butoxy)-2-[2-methyl-4-(5-methyl-3,4-dihydro-2H-1-benzopyran-6-yl)-7-[2-(morpholin-4-yl)ethoxy]-1-oxo-1,2-dihydroisoquinolin-3-yl]acetic acid]
pIC50: 5.67

Cc1c(-c2c([C@H](OC(C)(C)C)C(=O)O)n(C)c(=O)c3cc(CCc4ccccc4)ccc23)cc(F)c2c1CCCO2 (atropisomer, axis not shown; (M)) [Example 176, (2S)(M)-[(1,1-dimethylethyl)oxy][4-(8-fluoro-5-methyl-3,4-dihydro-2H-chromen-6-yl)-2-methyl-1-oxo-7-(2-phenylethyl)-1,2-dihydro-3-isoquinolinyl]ethanoic acid]
pIC50: 7.30

Cn1c(C(OC(C)(C)C)C(=O)O)c(-c2cnc3c(c2)CCCO3)c2ccccc2c1=O (centres unmarked) [Example 118, 2-(tert-butoxy)-2-(2-methyl-1-oxo-4-{2H,3H,4H-pyrano[2,3-b]pyridin-6-yl}-1,2-dihydroisoquinolin-3-yl)acetic acid]
pIC50: 4.38

Cc1c(-c2c([C@H](OC(C)(C)C)C(=O)O)n(C)c(=O)c3cc(CN4CCOCC4)ccc23)cc(F)c2c1CCCO2 (atropisomer, axis not shown; (M)) [Example 189, (S)(M)-2-(tert-butoxy)-2-(4-(8-fluoro-5-methylchroman-6-yl)-2-methyl-7-(morpholinomethyl)-1-oxo-1,2-dihydroisoquinolin-3-yl)acetic acid]
pIC50: 7.40

Cn1c(C(OC(C)(C)C)C(=O)O)c(-c2ccncc2)c2ccccc2c1=O (centres unmarked) [Example 48, 2-(tert-butoxy)-2-[2-methyl-1-oxo-4-(pyridin-4-yl)-1,2-dihydroisoquinolin-3-yl]acetic acid]
pIC50: 4.30

Cc1c(-c2c([C@H](OC(C)(C)C)C(=O)O)n(C)c(=O)c3cc(OCc4ccccn4)ccc23)cc(F)c2c1CCCO2 [Example 143, (2S)-2-(tert-butoxy)-2-[4-(8-fluoro-5-methyl-3,4-dihydro-2H-1-benzopyran-6-yl)-2-methyl-1-oxo-7-(pyridin-2-ylmethoxy)-1,2-dihydroisoquinolin-3-yl]acetic acid]
pIC50: 7.52

Cc1c(-c2c(C(OC(C)(C)C)C(=O)O)n(C)c(=O)c3cc(OCCO)ccc23)ccc2c1CCCO2 (centres unmarked) [Example 4, tert-Butoxy-[7-(2-hydroxy-ethoxy)-2-methyl-4-(5-methyl-chroman-6-yl)-1-oxo-1,2-dihydro-isoquinolin-3-yl]-acetic acid]
pIC50: 5.43
